Tests used:
Test in all cases: Bliss interaction score (quartile over a dose matrix) (fitness difference); higher = more antagonism (negative = synergy)
[1] = system: B. subtilis 168
How it was run: (§1)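 Each OD595 reading at entry into stationary phase was scaled to the robust mean of the untreated wells on its plate, with a ceiling of 1. These ratios define fitness, and single-drug fitness was inferred from combinations. The Bliss score compares observed fitness with the product-based expectation and is reported as quartiles across all replicate types, technical, biological and donor/recipient.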

[2] = system: S. aureus DSM 20231
How it was run: as §1

[3] = system: S. aureus Newman
How it was run: as §1

[4] = system: S. pneumoniae D39V
How it was run: as §1
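Note: first quartile when negative (synergy) and third quartile when positive (antagonism).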

For O=C(O)c1cn(C2CC2)c2cc(N3CCNCC3)c(F)cc2c1=O [Ciprofloxacin] + CN(C)[C@@H]1C(O)=C(C(N)=O)C(=O)[C@@]2(O)C(O)=C3C(=O)c4c(O)ccc(Cl)c4[C@@](C)(O)[C@H]3C[C@@H]12 [Clortetracycline], the Bliss interaction score [1] was 0.199, the Bliss interaction score [2] was 0.104 and the Bliss interaction score [3] was 0.119. For the same molecule, the Bliss interaction score [4] was -0.035.

Molecule CN(C)[C@@H]1C(O)=C(C(N)=O)C(=O)[C@@]2(O)C(O)=C3C(=O)c4c(O)ccc(Cl)c4[C@@](C)(O)[C@H]3C[C@@H]12 [Clortetracycline] + CC[C@H]1OC(=O)[C@H](C)C(=O)[C@H](C)[C@@H](O[C@@H]2O[C@H](C)C[C@H](N(C)C)[C@H]2O)[C@](C)(OC)C[C@@H](C)C(=O)[C@H](C)[C@H]2N(CCCCn3cnc(-c4cccnc4)c3)C(=O)O[C@]12C [Telithromycin] has a Bliss interaction score [1] of -0.372, a Bliss interaction score [2] of -0.0731 and a Bliss interaction score [3] of -0.101. The Bliss interaction score [4] was -0.0824.

With N#CC(C#N)=NNc1cccc(Cl)c1 [CCCP] + COc1c(N2C[C@@H]3CCCN[C@@H]3C2)c(F)cc2c(=O)c(C(=O)O)cn(C3CC3)c12 [Moxifloxacin] the Bliss interaction score [1] was 0.0233, the Bliss interaction score [2] was -0.0373 and the Bliss interaction score [3] was -0.0686. It also gave a Bliss interaction score [4] of 0.0433.

For CC(=O)Oc1ccccc1C(=O)O [Acetylsalicylicacid] + O=C1CN(/N=C/c2ccc([N+](=O)[O-])o2)C(=O)N1 [Nitrofurantoin], the Bliss interaction score [1] was -0.202, the Bliss interaction score [2] was -0.0978 and the Bliss interaction score [3] was -0.0905. It also gave a Bliss interaction score [4] of 0.0904.

CO/N=C(\C(=O)N[C@@H]1C(=O)N2C(C(=O)O)=C(COC(C)=O)CS[C@H]12)c1csc(N)n1 [Cefotaxime] + Oc1cc(Cl)ccc1Oc1ccc(Cl)cc1Cl [Triclosan] showed a Bliss interaction score [1] of 0.0558, a Bliss interaction score [2] of 0.0696 and a Bliss interaction score [3] of 0.033. It also gave a Bliss interaction score [4] of -0.0421.

CC1(C)S[C@@H]2[C@H](NC(=O)Cc3ccccc3)C(=O)N2[C@H]1C(=O)O [PenicillinG] + CN[C@@H]1[C@H](O[C@H]2[C@H](O[C@H]3[C@H](O)[C@@H](O)[C@H](N=C(N)N)[C@@H](O)[C@@H]3N=C(N)N)O[C@@H](C)[C@]2(O)C=O)O[C@@H](CO)[C@H](O)[C@H]1O [Streptomycin] gave a Bliss interaction score [1] of 0.0319, a Bliss interaction score [2] of -0.0333 and a Bliss interaction score [3] of -0.0403. For the same molecule, the Bliss interaction score [4] was -0.119.

Cc1ncc([N+](=O)[O-])n1CCO [Metronidazole] + CC1(C)S[C@@H]2[C@H](NC(=O)Cc3ccccc3)C(=O)N2[C@H]1C(=O)O [PenicillinG] showed a Bliss interaction score [1] of 0.0322, a Bliss interaction score [2] of 0.0819 and a Bliss interaction score [3] of 0.0592. The Bliss interaction score [4] was 0.114.

N#CC(C#N)=NNc1cccc(Cl)c1 [CCCP] + C[C@@H]1O[C@@H]1P(=O)(O)O [Fosfomycin] showed a Bliss interaction score [1] of 0.0638, a Bliss interaction score [2] of 0.0417 and a Bliss interaction score [3] of 0.0906. For the same molecule, the Bliss interaction score [4] was 0.0604.

Molecule CO/N=C(\C(=O)N[C@@H]1C(=O)N2C(C(=O)O)=C(COC(N)=O)CS[C@H]12)c1ccco1 [Cefuroxime] + Clc1ccc(COC(Cn2ccnc2)c2ccc(Cl)cc2Cl)c(Cl)c1 [Miconazole] has a Bliss interaction score [1] of 0.0653, a Bliss interaction score [2] of 0.112 and a Bliss interaction score [3] of 0.025. It also gave a Bliss interaction score [4] of 0.0717.

CO/N=C(\C(=O)N[C@@H]1C(=O)N2C(C(=O)O)=C(COC(N)=O)CS[C@H]12)c1ccco1 [Cefuroxime] + CC(=O)O[C@H]1C[C@@]2(C)[C@@H](C[C@@H](O)[C@H]3[C@@]4(C)CC[C@@H](O)[C@@H](C)[C@@H]4CC[C@@]32C)/C1=C(\CCC=C(C)C)C(=O)O [Fusidic acid] gave a Bliss interaction score [1] of 0.137, a Bliss interaction score [2] of -0.281 and a Bliss interaction score [3] of 0.104. The Bliss interaction score [4] was 0.0348.

Work on CN(C)[C@@H]1C(O)=C(C(N)=O)C(=O)[C@@]2(O)C(O)=C3C(=O)c4c(O)ccc(Cl)c4[C@@](C)(O)[C@H]3C[C@@H]12 [Clortetracycline] + CC(C1CCC(C(O1)OC2C(CC(C(C2O)OC3C(C(C(CO3)(C)O)NC)O)N)N)N)NC [Gentamicin] yielded a Bliss interaction score ([1]; main component drawn) of 0.181, a Bliss interaction score ([2]; main component drawn) of 0.0919 and a Bliss interaction score ([3]; main component drawn) of 0.141. It also gave a Bliss interaction score ([4]; main component drawn) of -0.183.

Work on N#CC(C#N)=NNc1cccc(Cl)c1 [CCCP] + CN[C@@H]1[C@H](O[C@H]2[C@H](O[C@H]3[C@H](O)[C@@H](O)[C@H](N=C(N)N)[C@@H](O)[C@@H]3N=C(N)N)O[C@@H](C)[C@]2(O)C=O)O[C@@H](CO)[C@H](O)[C@H]1O [Streptomycin] yielded a Bliss interaction score [1] of 0.48, a Bliss interaction score [2] of 0.0501 and a Bliss interaction score [3] of 0.0563. The Bliss interaction score [4] was 0.0786.

Molecule CN(C)[C@@H]1C(O)=C(C(N)=O)C(=O)[C@@]2(O)C(O)=C3C(=O)c4c(O)ccc(Cl)c4[C@@](C)(O)[C@H]3C[C@@H]12 [Clortetracycline] + CC(=O)NC[C@H]1CN(c2ccc(N3CCOCC3)c(F)c2)C(=O)O1 [Linezolid] has a Bliss interaction score [1] of -0.259, a Bliss interaction score [2] of -0.0326 and a Bliss interaction score [3] of -0.0457. It also gave a Bliss interaction score [4] of -0.0813.

With N#CC(C#N)=NNc1cccc(Cl)c1 [CCCP] + CN[C@H](CC(C)C)C(=O)N[C@H]1C(=O)N[C@@H](CC(N)=O)C(=O)N[C@H]2C(=O)N[C@H]3C(=O)N[C@H](C(=O)N[C@H](C(=O)O)c4cc(O)cc(O)c4-c4cc3ccc4O)[C@H](O)c3ccc(c(Cl)c3)Oc3cc2cc(c3O[C@@H]2O[C@H](CO)[C@@H](O)[C@H](O)[C@H]2O[C@H]2C[C@](C)(N)[C@H](O)[C@H](C)O2)Oc2ccc(cc2Cl)[C@H]1O [Vancomycin] the Bliss interaction score [1] was 0.0489, the Bliss interaction score [2] was 0.0309 and the Bliss interaction score [3] was -0.0614. The Bliss interaction score [4] was 0.0815.

Work on CC(=O)Oc1ccccc1C(=O)O [Acetylsalicylicacid] + N[C@@H]1CONC1=O [CycloserineD] yielded a Bliss interaction score [1] of 0.221, a Bliss interaction score [2] of 0.0689 and a Bliss interaction score [3] of -0.115. The Bliss interaction score [4] was 0.146.

Work on N#CC(C#N)=NNc1cccc(Cl)c1 [CCCP] + COc1cc(Cc2cnc(N)nc2N)cc(OC)c1OC [Trimethoprim] yielded a Bliss interaction score [1] of 0.0605, a Bliss interaction score [2] of 0.0495 and a Bliss interaction score [3] of -0.0599. For the same molecule, the Bliss interaction score [4] was 0.183.

— the supplement of paper PMC10627819
